Laboratory results: PubChem BioAssay AID1963867 (Molecular Pharmacology Branch, DTP, NCI, 2024)

Test system: KRAS-mutant PDC tumor spheroid with HUVEC/MSC, viability
Experiment: Anticancer human tumor 327498-153-R-J2-PDC patient-derived uterine carcinosarcoma cell line growth inhibition [KRAS2]
Conditions: for IC50: curve of first compound; for viability, T/C: stronger effect = lower value
Excerpt: Multicellular complex tumor spheroid response to RAS pathway inhibitors in combination with a targeted agents in patient-derived cell lines with oncogenic KRAS variants from multiple cancer types
A high-throughput screen of multi-cell type tumor spheroids was designed to identify active combinations of targeted small molecules and KRAS pathway inhibitors. Complex spheroids include a stromal component modeled by human endothelial cells (HUVEC) and fibroblasts modeled by human mesenchymal stem cells (MSCs). The concentration ranges selected for each drug and investigational agent were based upon clinically achievable concentrations if the clinical Cmax of the agent was known.
Compounds. The drugs and investigational agents: BI-3406 (NSC825286), BAY-293 (NSC824723), batoprotafib (TNO155; NSC825523), sotorasib (AMG 510; NSC818433), MRTX1257 (NSC819558), elimusertib (BAY 1895344; NSC800525), molibresib (GSK525762; NSC774829), temuterkib (LY3214996; NSC803410), venetoclax (NSC766270), alisertib (NSC759677), olaparib (NSC753686), talazoparib (NSC767125), erdafitinib (NSC781556), ipatasertib (NSC767898), cabozantinib (NSC761068), nintedanib (NSC756659), abemaciclib (NSC768073), docetaxel (NSC628503), trametinib (NSC758246), and sapanisertib (NSC764658) were obtained from the National Cancer Institute (NCI) Developmental Therapeutics Program Chemical Repository. The FDA-approved anticancer drug set is available from the Developmental Therapeutics Program. […] The stock solutions were prepared in dimethyl sulfoxide (DMSO, Sigma-Aldrich, St. Louis, MO, cat. D2650) at 800-fold the tested concentration and stored at -70 degrees C prior to their use. All drugs and investigational agents were tested over a range starting from a high concentration at or near the clinical Cmax and decreasing in half-log increments. If the clinical Cmax for an agent had not been determined, the highest concentration tested was 10 microM.
Cell Culture. All cells were maintained in an incubator at 37 degrees C and 5% CO2 with 95% humidity. The PDC lines were cultured according to standard operating procedures established by the NCI PDMR (https://pdmr.cancer.gov/sops/default.htm). Briefly, all PDCs were thawed and cultured in Matrigel-coated flasks prepared with a working solution of 1X Ham's F-12 nutrient mix, without supplementation (Invitrogen, Waltham, MA, cat. 11765054), 100 U/mL penicillin-streptomycin (Invitrogen, cat. 15140122), and 2.5% Matrigel (Corning Inc., Corning, NY, cat. 354248) for the first three passages. All PDCs were cultured in complete DMEM/F-12 media containing advanced DMEM/F-12 (Invitrogen, cat. 12634028), 4.9% defined fetal bovine serum, heat inactivated (HyClone Laboratories Inc., Logan, UT, cat. SH30070.03HI), 389 ng/mL hydrocortisone (Sigma-Aldrich, cat. H4001), 9.7 ng/mL human EGF recombinant protein (Invitrogen, cat. PHG0313), 23.4 microg/mL adenine (Sigma-Aldrich, cat. A2786), 97.3 U/mL penicillin-streptomycin (Invitrogen, cat. 15140122), 1.9 mM L-glutamine (Invitrogen, cat. 25030081), and 9.7 microM Y-27632 dihydrochloride (Tocris Bioscience, Bristol, United Kingdom, cat. 1254). The PDCs were cultured in complete DMEM/F12 media without 9.7 microM Y-27632 dihydrochloride for at least two passages prior to the screen. The established cell line HOP-62 was cultured in RPMI 1640 medium, HEPES (Invitrogen, cat. 22400105) with 10% defined fetal bovine serum (HyClone Laboratories Inc., cat. SH30070.03) and 2 mM L-glutamine (Invitrogen, cat. 25030081). The pooled donor HUVEC were cultured in endothelial cell growth medium 2 (PromoCell, Heidelberg, Germany, cat. C-22011) and the hMSC were cultured in mesenchymal stem cell growth medium 2 (PromoCell, cat. C-28009). For all experiments, HUVEC and hMSC were used at passages </=5, while the malignant cell lines were used at passages </=15. […]

[1] = second compound 0.1 µM, first compound 0.0316 µM
[2] = second compound 0.1 µM, first compound 0.1 µM
[3] = second compound 0.1 µM, first compound 0.316 µM
[4] = second compound 0.1 µM, first compound 1 µM
[5] = second compound 0.1 µM, first compound 3.16 µM
[6] = second compound 0.316 µM, first compound 0.0316 µM
[7] = second compound 0.316 µM, first compound 0.1 µM
[8] = second compound 0.316 µM, first compound 0.316 µM
[9] = second compound 0.316 µM, first compound 1 µM
[10] = second compound 0.316 µM, first compound 3.16 µM
[11] = second compound 1 µM, first compound 0.0316 µM
[12] = second compound 1 µM, first compound 0.1 µM
[13] = second compound 1 µM, first compound 0.316 µM
[14] = second compound 1 µM, first compound 1 µM
[15] = second compound 1 µM, first compound 3.16 µM
[16] = second compound 3.16 µM, first compound 0.0316 µM
[17] = second compound 3.16 µM, first compound 0.1 µM
[18] = second compound 3.16 µM, first compound 0.316 µM
[19] = second compound 3.16 µM, first compound 1 µM
[20] = second compound 3.16 µM, first compound 3.16 µM
[21] = second compound 10 µM, first compound 0.0316 µM
[22] = second compound 10 µM, first compound 0.1 µM
[23] = second compound 10 µM, first compound 0.316 µM
[24] = second compound 10 µM, first compound 1 µM
[25] = second compound 10 µM, first compound 3.16 µM
[26] = second compound 0.1 µM, first compound 0.01 µM
[27] = second compound 0.316 µM, first compound 0.01 µM
[28] = second compound 1 µM, first compound 0.01 µM
[29] = second compound 3.16 µM, first compound 0.01 µM
[30] = second compound 10 µM, first compound 0.01 µM
[31] = second compound 0.1 µM, first compound 0.000316 µM
[32] = second compound 0.1 µM, first compound 0.001 µM
[33] = second compound 0.1 µM, first compound 0.00316 µM
[34] = second compound 0.316 µM, first compound 0.000316 µM
[35] = second compound 0.316 µM, first compound 0.001 µM
[36] = second compound 0.316 µM, first compound 0.00316 µM
[37] = second compound 1 µM, first compound 0.000316 µM
[38] = second compound 1 µM, first compound 0.001 µM
[39] = second compound 1 µM, first compound 0.00316 µM
[40] = second compound 3.16 µM, first compound 0.000316 µM
[41] = second compound 3.16 µM, first compound 0.001 µM
[42] = second compound 3.16 µM, first compound 0.00316 µM
[43] = second compound 10 µM, first compound 0.000316 µM
[44] = second compound 10 µM, first compound 0.001 µM
[45] = second compound 10 µM, first compound 0.00316 µM
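Note: spheroids exposed to agents for seven days before reading.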
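Throughout, for viability, T/C: 100% = DMSO vehicle wells so lower means fewer viable cells.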

Row | SMILES | IC50 (second compound 0.1 µM) | IC50 (second compound 0.316 µM) | IC50 (second compound 1 µM) | IC50 (second compound 3.16 µM) | IC50 (second compound 10 µM) | viability, T/C [1] | viability, T/C [2] | viability, T/C [6] | viability, T/C [7] | viability, T/C [11] | viability, T/C [12] | viability, T/C [16] | viability, T/C [17] | viability, T/C [21] | viability, T/C [22] | viability, T/C [26] | viability, T/C [27] | viability, T/C [28] | viability, T/C [29] | viability, T/C [30] | also measured
1 | CC1OCC2(CCN(c3cnc(Sc4ccnc(N)c4Cl)c(N)n3)CC2)C1N (stereo not given) + CNCc1ccccc1-c1csc(C(C)Nc2nc(C)nc3cc(OC)c(OC)cc23)c1 | 136 nM | 109 nM | 100 nM | < 31.6 nM | < 31.6 nM | 75.4% | 52.6% | 61.4% | 51.8% | 65.7% | 50.1% | 0.11% | 0.09% | 0.13% | 0.18% |  |  |  |  |  | viability, T/C [3]: 41.2%; viability, T/C [4]: 34.2%; viability, T/C [5]: 30.9%; viability, T/C (second compound 0.1 µM, first compound 10 µM): 27.7%; viability, T/C [8]: 36%; viability, T/C [9]: 31%; viability, T/C [10]: 28%; viability, T/C (second compound 0.316 µM, first compound 10 µM): 24.6%; viability, T/C [13]: 39.9%; viability, T/C [14]: 31.9%; viability, T/C [15]: 31.7%; viability, T/C (second compound 1 µM, first compound 10 µM): 27.5%; viability, T/C [18]: 0.08%; viability, T/C [19]: 0.06%; viability, T/C [20]: 0.06%; viability, T/C (second compound 3.16 µM, first compound 10 µM): 0.17%; viability, T/C [23]: 0.13%; viability, T/C [24]: 0.43%; viability, T/C [25]: 0.13%; viability, T/C (second compound 10 µM, first compound 10 µM): 0.22%
2 | CC1COCCN1c1cc(-c2ccnn2C)c2ccnc(-c3ccn[nH]3)c2n1 (stereo not given) + COc1cc2nc(C)nc(NC(C)c3cc(N)cc(C(F)(F)F)c3)c2cc1OC1CCOC1 | 13 nM | 20.7 nM | 15.4 nM | 13.2 nM | < 10 nM | 3.7% | 2.44% | 31.4% | 9.52% | 30.1% | 10.6% | 25.2% | 6.64% | 15.9% | 1.79% | 63.9% | 81.8% | 62.1% | 57.9% | 46.3% | viability, T/C [3]: 3.52%; viability, T/C [4]: 4.74%; viability, T/C [5]: 4.39%; viability, T/C [8]: 6.32%; viability, T/C [9]: 5.51%; viability, T/C [10]: 5.8%; viability, T/C [13]: 5.67%; viability, T/C [14]: 7.04%; viability, T/C [15]: 4.67%; viability, T/C [18]: 3.75%; viability, T/C [19]: 3.28%; viability, T/C [20]: 3.79%; viability, T/C [23]: 2.06%; viability, T/C [24]: 1.48%; viability, T/C [25]: 0.91%
3 | CC(=O)Nc1cccc(-n2c(=O)n(C3CC3)c(=O)c3c(Nc4ccc(I)cc4F)n(C)c(=O)c(C)c32)c1 + C=CC(=O)N1CCN(c2nc(=O)n(-c3c(C)ccnc3C(C)C)c3nc(-c4c(O)cccc4F)c(F)cc23)C(C)C1 | 6.05 nM | 3.57 nM | 4.92 nM | 2.38 nM | < 0.1 nM | 16.2% |  | 14.5% |  | 13.3% |  | 15.3% |  | 13.4% |  | 45.2% | 37.7% | 44.4% | 31.9% | 24.1% | viability, T/C (second compound 0.1 µM, first compound 0.0001 µM): 70.5%; viability, T/C [31]: 60.1%; viability, T/C [32]: 61.5%; viability, T/C [33]: 57.9%; viability, T/C (second compound 0.316 µM, first compound 0.0001 µM): 65.7%; viability, T/C [34]: 67.2%; viability, T/C [35]: 57.6%; viability, T/C [36]: 51.5%; viability, T/C (second compound 1 µM, first compound 0.0001 µM): 60%; viability, T/C [37]: 63%; viability, T/C [38]: 56.3%; viability, T/C [39]: 53.1%; viability, T/C (second compound 3.16 µM, first compound 0.0001 µM): 60.7%; viability, T/C [40]: 57.2%; viability, T/C [41]: 54.5%; viability, T/C [42]: 49.4%; viability, T/C (second compound 10 µM, first compound 0.0001 µM): 46.5%; viability, T/C [43]: 47.7%; viability, T/C [44]: 45.1%; viability, T/C [45]: 41.2%
4 | Cn1ncnc1[C@H]1c2n[nH]c(=O)c3cc(F)cc(c23)N[C@@H]1c1ccc(F)cc1 + COc1cc2nc(C)nc(NC(C)c3cc(N)cc(C(F)(F)F)c3)c2cc1OC1CCOC1 | 12.5 nM | 9.03 nM | 4.31 nM | 7.37 nM | 1.4 nM | 33.3% | 20.1% | 32.2% | 20.5% | 28.7% | 20.1% | 26.5% | 20.4% | 27.8% | 18.5% | 54.5% | 48.1% | 42.1% | 47.3% | 42% | viability, T/C [31]: 79.3%; viability, T/C [32]: 82.3%; viability, T/C [33]: 68.9%; viability, T/C [34]: 82.1%; viability, T/C [35]: 63.5%; viability, T/C [36]: 68.6%; viability, T/C [37]: 76.6%; viability, T/C [38]: 69.7%; viability, T/C [39]: 50%; viability, T/C [40]: 62.9%; viability, T/C [41]: 68.8%; viability, T/C [42]: 58.1%; viability, T/C [43]: 50%; viability, T/C [44]: 51.6%; viability, T/C [45]: 48.5%
